Legend:
[1] = target: T1, CDK4 (Homo sapiens, UniProt P11802); assay: In vitro kinase inhibition IC50, luminescence (ADP Glo), retinoblastoma substrate; type: biochemical; conditions: read-out: CDK4/D1 IC50
T1 construct: purchased Invitrogen PR8064A
How it was run: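 Inhibition of CDK4 was quantified by ADP Glo luminescence with retinoblastoma as substrate. Reactions held 5 nM kinase, 1 μM retinoblastoma and 25 μM ATP and ran 2H at room temperature. A Synergy Neo reader took signals 15 min and 45 min after detection reagent, and percent inhibition was fitted to a four-parameter logistic model in XLfit to obtain IC50.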

[2] = target: T2, CDK6 (Homo sapiens, UniProt Q00534); assay: as above; type: biochemical; conditions: read-out: CDK6/D1 IC50
T2 construct: purchased Invitrogen PR8422B
How it was run: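 IC50 derived by four-parameter logistic fit of percent inhibition, read as ADP-Glo luminescence. Reactions: 5 nM CDK6, 1 μM retinoblastoma, 25 μM ATP, test compound 0.1–200 nM final, 2 h at room temperature.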

[3] = target: T3, FMS kinase (Homo sapiens, UniProt P07333); assay: LanthaScreen Eu Kinase Binding Assay (ATP, fluorescent-PolyGT substrate); type: biochemical
T3 construct: purchased Invitrogen (Life Technologies)
Protocol: IC50 values of compounds against FMS kinase were determined by LanthaScreen™ Eu Kinase Binding Assay at Invitrogen (Life Technologies Grand Island, N.Y.) where total reaction volume was 10 μL in low-volume 384-well plates (#4511, Corning). Serially diluted compounds (3-fold) were incubated with kinase (1.25 nM) for 10 min, following which a mixture of ATP (10 μM) (#A1852, Sigma, St-Louis, Mo.) and fluorescent-PolyGT substrate (200 nM) (#PV3610, Invitrogen, Life Technologies Grand Island, N.Y.) was added and incubated in dark at room temperature for 1H. After 1H, 10 μL stop solution containing Terbium labeled antibody (4 nM) (#PV3529, Invitrogen, Life Technologies Grand Island, N.Y.) and EDTA (#E5134, Sigma, St-Louis, Mo.) (20 mM) in TR-FRET dilution buffer (#PV3574, Invitrogen, Life Technologies Grand Island, N.Y.) was added. Readings were taken in a Synergy Neo Plate reader (BioTek, Winooski) at single excitation of 340 nm and Dual emission at 495 nm and 520 nm respectively.
The following equations were used for LanthaScreen Eu Kinase Binding Assay Data Analysis. Percent inhibition (100-% activity) was fitted to the “four-parameter logistic model” in XLfit for determination of IC50 values.

[4] = target: T4, PI3Kδ kinase (Homo sapiens, UniProt O00329); assay: PI3Kδ kinase assay (ADP-Glo, Reaction Biology); type: biochemical
T4 construct: purchased Reaction Biology Corporation (assay service)
Protocol: IC50 values of compounds against the PI3Kδ kinase were determined by an assay performed by Reaction Biology Corporation (Malvern, Pa.). Briefly, this assay was conducted in buffer (Tris-HCl 40 mM (pH7.5), Orthovanadate 3 mM, MgCl2 20 mM, DTT 2 mM, CHAPS 0.05%, DMSO 1%). PI3Kδ kinase was added to the reaction solution and mixed gently. The test compounds in 100% DMSO (at specific solutions) were mixed with the kinase reaction mixture to achieve the final compounds at pre-defined concentrations (e.g., range −0.5 nM to 100 μM) by Acoustic technology (Echo550; nanoliter range). After incubating for 10 min at room temp, ATP was added into the reaction mixture to initiate the reaction followed by a 30-min incubation at 30° C. After quenching the reaction with ADP-Glo reagent, the plates were incubated for 40 min. The Detection Mixture was added, and the plate was incubated for an additional 30 min. At the end of incubation, luminescence was measured. For data analysis, the luminescence was converted into μM ADP production based on ADP standard curves. The nonlinear regression to obtain the standard curve and IC50 values was performed using GraphPad Prism (GraphPad Software, Inc., San Diego, Calif.).

[5] = system: MCF-7 breast adenocarcinoma cells; assay: Cancer cell proliferation assay, single agent (cell viability); type: cell-based; conditions: Homo sapiens, MCF7, Table 4; Rb positive; treatment 144 Hr with medium change at 72 Hr; Cell Titer-Glo or resazurin
How it was run: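 Viability read by resazurin or CellTiter-Glo after 24 h treatment (BT-549) or 144 h with a 72 h medium change (MCF-7, DU4475). Compounds tested at 7–9 concentrations, e.g. 1.1 nM–10 μM, added the day after seeding; IC50 by nonlinear sigmoidal regression.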

T4 sequence (O00329 whole entry): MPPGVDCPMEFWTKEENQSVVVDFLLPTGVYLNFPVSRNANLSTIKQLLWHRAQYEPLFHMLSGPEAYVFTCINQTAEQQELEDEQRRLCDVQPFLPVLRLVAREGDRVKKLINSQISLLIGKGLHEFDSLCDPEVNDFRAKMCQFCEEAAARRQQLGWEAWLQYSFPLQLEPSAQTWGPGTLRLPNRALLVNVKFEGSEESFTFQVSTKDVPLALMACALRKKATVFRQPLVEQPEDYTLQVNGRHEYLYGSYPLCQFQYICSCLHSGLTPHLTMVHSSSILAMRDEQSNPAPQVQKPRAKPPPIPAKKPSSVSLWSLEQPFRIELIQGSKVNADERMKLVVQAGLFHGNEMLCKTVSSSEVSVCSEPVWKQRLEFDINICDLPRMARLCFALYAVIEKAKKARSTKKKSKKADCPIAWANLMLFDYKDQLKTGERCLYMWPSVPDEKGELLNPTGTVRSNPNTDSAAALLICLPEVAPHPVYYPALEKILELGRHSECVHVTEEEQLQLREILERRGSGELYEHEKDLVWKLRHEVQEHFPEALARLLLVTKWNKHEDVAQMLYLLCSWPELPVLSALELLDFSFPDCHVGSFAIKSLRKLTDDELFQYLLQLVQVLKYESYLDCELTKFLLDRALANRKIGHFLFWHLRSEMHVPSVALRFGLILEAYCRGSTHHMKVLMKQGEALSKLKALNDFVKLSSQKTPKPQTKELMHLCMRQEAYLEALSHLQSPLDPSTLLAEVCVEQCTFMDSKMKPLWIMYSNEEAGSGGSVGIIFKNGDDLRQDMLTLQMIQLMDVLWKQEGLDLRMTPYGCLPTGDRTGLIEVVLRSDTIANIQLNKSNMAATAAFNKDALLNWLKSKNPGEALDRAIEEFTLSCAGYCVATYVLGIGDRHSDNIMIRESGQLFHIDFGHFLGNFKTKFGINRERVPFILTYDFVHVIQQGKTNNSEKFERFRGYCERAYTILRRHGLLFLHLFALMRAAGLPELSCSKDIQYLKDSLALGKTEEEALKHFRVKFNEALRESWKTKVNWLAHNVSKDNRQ
T4 sequence (P27986 whole entry partner): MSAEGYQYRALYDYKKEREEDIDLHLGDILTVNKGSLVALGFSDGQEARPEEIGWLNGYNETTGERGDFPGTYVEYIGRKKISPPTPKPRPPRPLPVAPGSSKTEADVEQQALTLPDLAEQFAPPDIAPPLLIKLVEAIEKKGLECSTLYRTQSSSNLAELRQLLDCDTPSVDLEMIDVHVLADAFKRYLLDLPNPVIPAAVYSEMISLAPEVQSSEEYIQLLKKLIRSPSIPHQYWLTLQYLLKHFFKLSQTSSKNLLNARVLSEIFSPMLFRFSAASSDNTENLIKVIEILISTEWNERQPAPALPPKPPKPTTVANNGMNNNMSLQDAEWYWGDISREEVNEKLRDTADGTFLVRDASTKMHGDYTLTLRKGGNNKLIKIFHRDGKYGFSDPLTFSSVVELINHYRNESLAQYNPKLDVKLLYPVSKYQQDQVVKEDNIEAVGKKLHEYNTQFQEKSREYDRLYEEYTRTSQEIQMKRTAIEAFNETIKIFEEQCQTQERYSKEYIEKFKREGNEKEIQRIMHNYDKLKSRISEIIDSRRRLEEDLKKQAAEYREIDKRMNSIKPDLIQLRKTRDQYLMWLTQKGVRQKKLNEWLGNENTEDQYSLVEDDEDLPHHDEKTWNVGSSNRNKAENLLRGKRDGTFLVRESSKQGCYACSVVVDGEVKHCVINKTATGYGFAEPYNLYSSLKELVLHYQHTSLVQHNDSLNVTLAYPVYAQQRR
T1 sequence (P11802 whole entry): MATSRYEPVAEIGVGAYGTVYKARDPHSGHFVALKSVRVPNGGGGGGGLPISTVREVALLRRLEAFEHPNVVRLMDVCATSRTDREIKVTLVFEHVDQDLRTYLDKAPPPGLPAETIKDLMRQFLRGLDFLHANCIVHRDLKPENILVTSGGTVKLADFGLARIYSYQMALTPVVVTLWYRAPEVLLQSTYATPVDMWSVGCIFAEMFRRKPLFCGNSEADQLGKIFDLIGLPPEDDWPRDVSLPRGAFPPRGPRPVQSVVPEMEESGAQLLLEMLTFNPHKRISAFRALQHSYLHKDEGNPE
T1 sequence (P24385 whole entry partner): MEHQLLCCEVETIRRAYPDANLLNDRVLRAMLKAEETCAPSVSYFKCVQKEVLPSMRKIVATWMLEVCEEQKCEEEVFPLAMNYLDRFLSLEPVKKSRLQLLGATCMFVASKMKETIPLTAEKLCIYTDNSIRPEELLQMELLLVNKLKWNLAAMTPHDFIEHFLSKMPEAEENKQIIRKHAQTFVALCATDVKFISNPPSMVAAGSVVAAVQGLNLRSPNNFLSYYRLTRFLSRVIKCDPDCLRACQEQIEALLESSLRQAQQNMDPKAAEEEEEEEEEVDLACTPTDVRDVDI
T3 sequence (P07333 20-972): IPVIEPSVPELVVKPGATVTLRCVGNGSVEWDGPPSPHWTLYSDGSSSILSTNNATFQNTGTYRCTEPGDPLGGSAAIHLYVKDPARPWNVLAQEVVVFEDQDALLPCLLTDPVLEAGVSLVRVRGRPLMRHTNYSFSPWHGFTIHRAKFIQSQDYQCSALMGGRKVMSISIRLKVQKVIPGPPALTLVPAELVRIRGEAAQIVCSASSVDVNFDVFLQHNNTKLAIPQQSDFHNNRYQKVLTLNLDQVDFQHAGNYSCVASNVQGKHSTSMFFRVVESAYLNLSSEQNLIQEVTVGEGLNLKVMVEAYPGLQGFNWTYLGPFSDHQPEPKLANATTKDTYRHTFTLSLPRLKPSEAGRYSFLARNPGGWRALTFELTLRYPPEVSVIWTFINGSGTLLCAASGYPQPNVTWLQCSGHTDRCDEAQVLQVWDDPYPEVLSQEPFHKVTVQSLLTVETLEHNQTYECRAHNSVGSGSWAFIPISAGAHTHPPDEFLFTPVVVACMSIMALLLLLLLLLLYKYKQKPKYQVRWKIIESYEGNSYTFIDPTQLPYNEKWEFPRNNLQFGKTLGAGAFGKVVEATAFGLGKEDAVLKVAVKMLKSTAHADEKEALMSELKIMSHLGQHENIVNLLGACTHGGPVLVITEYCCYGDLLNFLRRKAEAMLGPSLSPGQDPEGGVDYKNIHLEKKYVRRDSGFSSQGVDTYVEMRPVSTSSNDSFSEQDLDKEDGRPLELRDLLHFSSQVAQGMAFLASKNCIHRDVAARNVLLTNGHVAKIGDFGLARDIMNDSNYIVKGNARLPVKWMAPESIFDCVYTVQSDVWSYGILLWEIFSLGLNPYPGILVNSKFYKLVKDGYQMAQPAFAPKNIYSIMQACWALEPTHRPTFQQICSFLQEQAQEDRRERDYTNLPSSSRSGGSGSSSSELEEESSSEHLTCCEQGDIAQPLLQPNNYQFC
T2 sequence (Q00534 whole entry): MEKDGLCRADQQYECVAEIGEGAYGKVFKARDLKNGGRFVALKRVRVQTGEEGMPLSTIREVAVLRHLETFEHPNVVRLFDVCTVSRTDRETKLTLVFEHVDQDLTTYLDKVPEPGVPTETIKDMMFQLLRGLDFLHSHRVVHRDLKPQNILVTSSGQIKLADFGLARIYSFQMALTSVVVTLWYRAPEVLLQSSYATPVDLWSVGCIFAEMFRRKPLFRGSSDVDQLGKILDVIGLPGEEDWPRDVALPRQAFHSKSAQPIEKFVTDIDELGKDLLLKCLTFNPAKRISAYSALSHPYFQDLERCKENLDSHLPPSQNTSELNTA
T2 sequence (P24385 whole entry partner): as the sequence (P24385 whole entry partner) above

Row | Compound | IC50 [1] [nM] | IC50 [2] [nM] | IC50 [3] [nM] | IC50 [4] [nM] | IC50 [5] [nM]
1 | N#Cc1cc2cnc(Nc3cccc(S(N)(=O)=O)c3)nc2n(C2CCCC2)c1=O [Compound No. 3, 3-((6-cyano-8-cyclopentyl-7-oxo-7,8-dihydropyrido[2,3-d]pyrimidin-2-yl)amino)benzenesulfonamide] | 12 | 14 | 35 | 130 | –
2 | CN1CCN(c2ccc(Nc3ncc4cc(C#N)c(=O)n([C@H]5CC[C@H](C)CC5)c4n3)cc2)CC1 [Compound No. 1, 8-((1r,4r)-4-methylcyclohexyl)-2-((4-(4-methylpiperazin-1-yl)phenyl)amino)-7-oxo-7,8-dihydropyrido[2,3-d]pyrimidine-6-carbonitrile] | 2 | 1 | < 300 | 389 | 8060
3 | CN1CCN(c2ccc(Nc3ncc4cc(C#N)c(=O)n(C5CCCC5)c4n3)cc2F)CC1 [Compound No. 36, 8-cyclopentyl-2-((3-fluoro-4-(4-methylpiperazin-1-yl)phenyl)amino)-7-oxo-7,8-dihydropyrido[2,3-d]pyrimidine-6-carbonitrile] | 1 | 1 | 6.5 | 1030 | 315
4 | N#Cc1cc2cnc(Nc3cccc(C(N)=O)c3)nc2n(C2CCCC2)c1=O [Compound No. 5, 3-((6-cyano-8-cyclopentyl-7-oxo-7,8-dihydropyrido[2,3-d]pyrimidin-2-yl)amino)benzamide] | 212 | 48 | 1 | 444 | –

Second part, the compound after the results:

Row | IC50 [1] [nM] | IC50 [2] [nM] | IC50 [3] [nM] | IC50 [4] [nM] | IC50 [5] [nM] | Compound
5 | 5.5 | 1 | < 1 | 405 | 164 | CCN(CC)CCOc1ccc(Nc2ncc3cc(C#N)c(=O)n(C4CCCC4)c3n2)cc1 [Compound No. 41, 8-cyclopentyl-2-((4-(2-(diethylamino)ethoxy)phenyl)amino)-7-oxo-7,8-dihydropyrido[2,3-d]pyrimidine-6-carbonitrile]
6 | 5 | 3 | 1.5 | 180 | 180 | N#Cc1cc2cnc(Nc3ccc(C4CCNCC4)c(F)c3)nc2n(C2CCCC2)c1=O [Compound No. 43, 8-cyclopentyl-2-((3-fluoro-4-(piperidin-4-yl)phenyl)amino)-7-oxo-7,8-dihydropyrido[2,3-d]pyrimidine-6-carbonitrile]
7 | 2 | 1 | 2.5 | 95 | 95 | CN(C)C1CCN(c2ccc(Nc3ncc4cc(C#N)c(=O)n(C5CCCC5)c4n3)cc2F)CC1 [Compound No. 44, 8-cyclopentyl-2-((4-(4-(dimethylamino)piperidin-1-yl)-3-fluorophenyl)amino)-7-oxo-7,8-dihydropyrido[2,3-d]pyrimidine-6-carbonitrile]
8 | 1.5 | 1 | 5.5 | 384 | 452 | CN1CCc2cc(Nc3ncc4cc(C#N)c(=O)n(C5CCCC5)c4n3)ccc2C1 [Compound No. 38, 8-cyclopentyl-2-((2-methyl-1,2,3,4-tetrahydroisoquinolin-6-yl)amino)-7-oxo-7,8-dihydropyrido[2,3-d]pyrimidine-6-carbonitrile]
9 | > 200 | 65 | < 1 | 43 | 1020 | CN(C)CC1Cc2ccc(Nc3ncc4cc(C#N)c(=O)n(C5CCCC5)c4n3)cc2C(=O)N1 (stereo not shown) [Compound No. 22, 8-cyclopentyl-2-((3-((dimethylamino)methyl)-1-oxo-1,2,3,4-tetrahydroisoquinolin-7-yl)amino)-7-oxo-7,8-dihydropyrido[2,3-d]pyrimidine-6-carbonitrile]
10 | – | – | 0.4 | 1330 | 2500 | N#Cc1cc2cnc(Nc3ccc(N4CCNCC4=O)cc3)nc2n(C2CCCC2)c1=O [Compound No. 12, 8-cyclopentyl-7-oxo-2-((4-(2-oxopiperazin-1-yl)phenyl)amino)-7,8-dihydropyrido[2,3-d]pyrimidine-6-carbonitrile]

Reference: patent publication US20220273659A1, “HETEROCYCLIC COMPOUNDS AS KINASE INHIBITORS” (NUVATION BIO INC., priority 2019, published 2022)
